Source: ChEMBL document CHEMBL4507300 (2021)

Columns and labels:
[1] = molecular target: Casein kinase I isoform alpha-like (Homo sapiens) (UniProt Q8N752); conditions: Compound concentration 1000.0 nM
[2] = molecular target: Ephrin type-B receptor 3 (Homo sapiens) (UniProt P54753); conditions: Compound concentration 1000.0 nM
[3] = molecular target: cAMP-dependent protein kinase catalytic subunit beta (Homo sapiens) (UniProt P22694); conditions: Compound concentration 1000.0 nM
[4] = molecular target: Alpha-2A adrenergic receptor (Homo sapiens) (UniProt P08913); conditions: Compound concentration 10.0 uM
[5] = molecular target: Rho-associated protein kinase 2 (Homo sapiens) (UniProt O75116); conditions: Compound concentration 1000.0 nM
[6] = molecular target: Microtubule-associated serine/threonine-protein kinase 1 (Homo sapiens) (UniProt Q9Y2H9); conditions: Compound concentration 1000.0 nM
[7] = molecular target: RAF proto-oncogene serine/threonine-protein kinase (Homo sapiens) (UniProt P04049); conditions: Compound concentration 1000.0 nM
[8] = molecular target: Cyclin-dependent kinase 4 (Homo sapiens) (UniProt P11802); conditions: Compound concentration 1000.0 nM
[9] = molecular target: Phosphorylase b kinase regulatory subunit alpha, liver isoform (Homo sapiens) (UniProt P46019); conditions: Compound concentration 1000.0 nM
[10] = molecular target: Calcium/calmodulin-dependent protein kinase type 1G (Homo sapiens) (UniProt Q96NX5); conditions: Compound concentration 1000.0 nM
[11] = molecular target: 5-hydroxytryptamine receptor 2B (Homo sapiens, UniProt P41595); conditions: Compound concentration 10.0 uM
[12] = molecular target: Serine/threonine-protein kinase MARK2 (Homo sapiens) (UniProt Q7KZI7); conditions: Compound concentration 1000.0 nM
[13] = molecular target: Phosphatidylinositol 4-phosphate 3-kinase C2 domain-containing subunit beta (Homo sapiens) (UniProt O00750); conditions: Compound concentration 1000.0 nM
Histamine H1 receptor = Histamine H1 receptor (Homo sapiens, UniProt P35367); conditions: Compound concentration 10.0 uM
[14] = molecular target: Mitogen-activated protein kinase kinase kinase kinase 5 (Homo sapiens) (UniProt Q9Y4K4); conditions: Compound concentration 1000.0 nM
[15] = test system: ALK tyrosine kinase receptor (Homo sapiens), Q9UM73 [L1196M]; conditions: Compound concentration 1000.0 nM
[16] = molecular target: Serine/threonine-protein kinase LATS1 (Homo sapiens) (UniProt O95835); conditions: Compound concentration 1000.0 nM
[17] = molecular target: Tyrosine-protein kinase Blk (Homo sapiens) (UniProt P51451); conditions: Compound concentration 1000.0 nM
[18] = molecular target: Mu-type opioid receptor (Homo sapiens) (UniProt P35372); conditions: Compound concentration 10.0 uM
[19] = molecular target: Serine/threonine-protein kinase DCLK3 (Homo sapiens) (UniProt Q9C098); conditions: Compound concentration 1000.0 nM
[20] = molecular target: MAP kinase-interacting serine/threonine-protein kinase 1 (Homo sapiens) (UniProt Q9BUB5); conditions: Compound concentration 1000.0 nM
[21] = molecular target: Serine/threonine-protein kinase PAK 1 (Homo sapiens) (UniProt Q13153); conditions: Compound concentration 1000.0 nM
[22] = molecular target: Phosphorylase b kinase gamma catalytic chain, skeletal muscle/heart isoform (Homo sapiens) (UniProt Q16816); conditions: Compound concentration 1000.0 nM
[23] = molecular target: Serine/threonine-protein kinase DCLK1 (Homo sapiens) (UniProt O15075); conditions: Compound concentration 1000.0 nM
[24] = molecular target: AP2-associated protein kinase 1 (Homo sapiens) (UniProt Q2M2I8); conditions: Compound concentration 1000.0 nM
[25] = molecular target: G protein-coupled receptor kinase 3 (Homo sapiens) (UniProt P35626); conditions: Compound concentration 1000.0 nM
[26] = molecular target: Serine/threonine-protein kinase TNNI3K (Homo sapiens) (UniProt Q59H18); conditions: Compound concentration 1000.0 nM
[27] = molecular target: Tyrosine-protein kinase Yes (Homo sapiens) (UniProt P07947); conditions: Compound concentration 1000.0 nM
[28] = molecular target: Serine/threonine-protein kinase 24 (Homo sapiens) (UniProt Q9Y6E0); conditions: Compound concentration 1000.0 nM
[29] = molecular target: Tyrosine-protein kinase Fer (Homo sapiens) (UniProt P16591); conditions: Compound concentration 1000.0 nM
[30] = molecular target: Cyclin-dependent kinase 5 (Homo sapiens) (UniProt Q00535); conditions: Compound concentration 1000.0 nM
[31] = molecular target: Serine/threonine-protein kinase ULK2 (Homo sapiens) (UniProt Q8IYT8); conditions: Compound concentration 1000.0 nM
[32] = molecular target: Insulin-like growth factor 1 receptor (Homo sapiens) (UniProt P08069); conditions: Compound concentration 1000.0 nM
[33] = molecular target: Serine/threonine-protein kinase 36 (Homo sapiens) (UniProt Q9NRP7); conditions: Compound concentration 1000.0 nM
[34] = molecular target: Casein kinase I isoform gamma-2 (Homo sapiens) (UniProt P78368); conditions: Compound concentration 1000.0 nM
[35] = test system: Epidermal growth factor receptor (Homo sapiens), P00533 [UNDEFINED MUTATION]; conditions: Compound concentration 1000.0 nM
[36] = molecular target: Serine/threonine-protein kinase TAO2 (Homo sapiens) (UniProt Q9UL54); conditions: Compound concentration 1000.0 nM
[37] = molecular target: Phosphatidylinositol 4-phosphate 5-kinase type-1 gamma (Homo sapiens) (UniProt O60331); conditions: Compound concentration 1000.0 nM
[38] = molecular target: Delta-type opioid receptor (Homo sapiens) (UniProt P41143); conditions: Compound concentration 10.0 uM
[39] = molecular target: Cyclin-dependent kinase 2 homolog (Plasmodium falciparum (isolate 3D7)) (UniProt P61075); conditions: Compound concentration 1000.0 nM
[40] = test system: Phosphatidylinositol 4,5-bisphosphate 3-kinase catalytic subunit alpha isoform (Homo sapiens), P42336 [M1043I]; conditions: Compound concentration 1000.0 nM
[41] = test system: Mast/stem cell growth factor receptor Kit (Homo sapiens), P10721 [V559D]; conditions: Compound concentration 1000.0 nM
[42] = molecular target: Sodium-dependent serotonin transporter (Homo sapiens, UniProt P31645); conditions: Compound concentration 10.0 uM
[43] = molecular target: 5'-AMP-activated protein kinase catalytic subunit alpha-2 (Homo sapiens) (UniProt P54646); conditions: Compound concentration 1000.0 nM
[44] = molecular target: Serine/threonine-protein kinase BRSK2 (Homo sapiens) (UniProt Q8IWQ3); conditions: Compound concentration 1000.0 nM
Serine/threonine-protein kinase BRSK2 (Homo sapiens), sequence (Q8IWQ3 whole entry): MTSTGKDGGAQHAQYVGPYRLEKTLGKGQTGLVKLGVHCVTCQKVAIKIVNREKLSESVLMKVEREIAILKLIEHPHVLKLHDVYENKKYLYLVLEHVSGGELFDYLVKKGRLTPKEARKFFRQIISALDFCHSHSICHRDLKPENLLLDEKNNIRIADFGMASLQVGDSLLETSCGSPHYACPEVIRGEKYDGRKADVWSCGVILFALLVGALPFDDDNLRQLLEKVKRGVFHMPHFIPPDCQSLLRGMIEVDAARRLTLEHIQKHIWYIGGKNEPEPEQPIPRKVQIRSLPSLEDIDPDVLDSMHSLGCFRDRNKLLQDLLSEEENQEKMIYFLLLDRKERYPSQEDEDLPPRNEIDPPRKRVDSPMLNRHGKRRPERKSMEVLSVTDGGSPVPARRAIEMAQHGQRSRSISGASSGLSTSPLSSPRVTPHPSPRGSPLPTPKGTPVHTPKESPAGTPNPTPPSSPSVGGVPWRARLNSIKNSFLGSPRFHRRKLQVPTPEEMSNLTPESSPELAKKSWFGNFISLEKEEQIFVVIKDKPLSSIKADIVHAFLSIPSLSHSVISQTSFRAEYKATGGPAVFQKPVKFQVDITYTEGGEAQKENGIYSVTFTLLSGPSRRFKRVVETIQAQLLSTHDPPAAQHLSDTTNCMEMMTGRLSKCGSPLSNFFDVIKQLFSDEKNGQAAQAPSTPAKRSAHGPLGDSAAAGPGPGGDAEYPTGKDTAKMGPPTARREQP

Serine/threonine-protein kinase ULK2 (Homo sapiens), sequence (Q8IYT8 whole entry): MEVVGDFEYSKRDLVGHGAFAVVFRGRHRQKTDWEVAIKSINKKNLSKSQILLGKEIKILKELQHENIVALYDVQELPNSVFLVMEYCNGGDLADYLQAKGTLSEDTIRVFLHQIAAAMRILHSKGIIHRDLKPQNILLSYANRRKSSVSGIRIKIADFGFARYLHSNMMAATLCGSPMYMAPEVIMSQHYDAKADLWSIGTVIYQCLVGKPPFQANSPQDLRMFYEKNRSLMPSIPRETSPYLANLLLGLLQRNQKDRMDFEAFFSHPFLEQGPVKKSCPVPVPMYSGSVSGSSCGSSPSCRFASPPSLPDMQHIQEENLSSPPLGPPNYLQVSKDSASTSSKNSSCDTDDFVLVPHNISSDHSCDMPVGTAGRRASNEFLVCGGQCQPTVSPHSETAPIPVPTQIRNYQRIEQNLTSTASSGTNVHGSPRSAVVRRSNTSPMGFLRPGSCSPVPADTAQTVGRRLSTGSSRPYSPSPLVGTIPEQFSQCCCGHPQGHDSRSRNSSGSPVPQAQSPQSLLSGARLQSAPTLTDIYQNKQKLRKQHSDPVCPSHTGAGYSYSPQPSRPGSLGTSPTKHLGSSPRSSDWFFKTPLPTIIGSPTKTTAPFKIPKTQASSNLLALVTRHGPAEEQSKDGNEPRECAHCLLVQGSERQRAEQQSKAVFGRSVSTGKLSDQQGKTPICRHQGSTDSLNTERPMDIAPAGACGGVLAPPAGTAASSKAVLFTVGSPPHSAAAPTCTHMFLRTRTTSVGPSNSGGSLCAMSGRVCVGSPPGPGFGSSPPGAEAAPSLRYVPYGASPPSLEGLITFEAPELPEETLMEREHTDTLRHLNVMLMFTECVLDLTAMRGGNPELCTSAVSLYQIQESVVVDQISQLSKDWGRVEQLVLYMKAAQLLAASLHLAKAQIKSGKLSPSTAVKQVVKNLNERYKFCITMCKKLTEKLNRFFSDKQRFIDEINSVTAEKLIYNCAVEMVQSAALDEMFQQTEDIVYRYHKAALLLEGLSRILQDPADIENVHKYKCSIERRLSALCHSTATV
Phosphatidylinositol 4-phosphate 3-kinase C2 domain-containing subunit beta (Homo sapiens), sequence (O00750 whole entry, the tested form may be a part): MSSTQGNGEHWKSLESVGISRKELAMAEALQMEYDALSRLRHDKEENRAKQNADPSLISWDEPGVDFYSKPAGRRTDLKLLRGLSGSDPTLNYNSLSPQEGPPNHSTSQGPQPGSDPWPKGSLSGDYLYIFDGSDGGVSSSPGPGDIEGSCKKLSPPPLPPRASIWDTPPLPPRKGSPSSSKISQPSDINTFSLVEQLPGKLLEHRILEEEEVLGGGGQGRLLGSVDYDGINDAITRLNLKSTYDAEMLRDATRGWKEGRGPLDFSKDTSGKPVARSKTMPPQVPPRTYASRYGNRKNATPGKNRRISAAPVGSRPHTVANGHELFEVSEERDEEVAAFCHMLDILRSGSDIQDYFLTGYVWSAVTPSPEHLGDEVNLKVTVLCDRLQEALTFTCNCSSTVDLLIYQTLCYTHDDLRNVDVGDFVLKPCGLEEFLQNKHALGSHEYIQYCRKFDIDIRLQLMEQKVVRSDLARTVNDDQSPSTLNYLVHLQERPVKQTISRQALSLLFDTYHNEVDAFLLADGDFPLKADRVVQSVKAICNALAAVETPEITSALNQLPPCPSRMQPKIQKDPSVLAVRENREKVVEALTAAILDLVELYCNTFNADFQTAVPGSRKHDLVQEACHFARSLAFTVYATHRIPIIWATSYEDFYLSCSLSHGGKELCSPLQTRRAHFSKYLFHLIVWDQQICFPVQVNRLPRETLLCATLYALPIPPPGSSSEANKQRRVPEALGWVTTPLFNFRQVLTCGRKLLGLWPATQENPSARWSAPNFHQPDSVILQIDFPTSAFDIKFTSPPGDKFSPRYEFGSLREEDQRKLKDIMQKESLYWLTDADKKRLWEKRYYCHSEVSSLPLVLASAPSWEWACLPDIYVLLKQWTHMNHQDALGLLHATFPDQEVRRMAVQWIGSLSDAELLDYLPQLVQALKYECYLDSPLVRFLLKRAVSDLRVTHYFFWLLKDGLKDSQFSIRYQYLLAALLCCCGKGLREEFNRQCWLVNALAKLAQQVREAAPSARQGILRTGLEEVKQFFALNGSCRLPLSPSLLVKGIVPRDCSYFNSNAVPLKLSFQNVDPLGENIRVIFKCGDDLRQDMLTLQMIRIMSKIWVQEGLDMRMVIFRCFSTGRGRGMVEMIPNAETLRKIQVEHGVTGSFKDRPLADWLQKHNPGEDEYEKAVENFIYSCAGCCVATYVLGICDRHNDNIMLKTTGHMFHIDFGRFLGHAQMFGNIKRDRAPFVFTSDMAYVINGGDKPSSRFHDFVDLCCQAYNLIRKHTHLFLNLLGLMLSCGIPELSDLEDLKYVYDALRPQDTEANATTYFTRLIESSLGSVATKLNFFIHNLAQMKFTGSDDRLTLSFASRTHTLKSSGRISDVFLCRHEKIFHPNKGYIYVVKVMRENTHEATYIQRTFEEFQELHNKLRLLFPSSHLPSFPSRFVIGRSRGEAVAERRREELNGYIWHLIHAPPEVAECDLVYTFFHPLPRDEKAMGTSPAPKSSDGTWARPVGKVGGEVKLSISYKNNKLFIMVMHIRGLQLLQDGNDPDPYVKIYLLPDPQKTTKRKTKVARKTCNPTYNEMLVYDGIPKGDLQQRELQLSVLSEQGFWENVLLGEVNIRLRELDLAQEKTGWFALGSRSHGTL
Cyclin-dependent kinase 5 (Homo sapiens), sequence (Q00535 whole entry, looked up): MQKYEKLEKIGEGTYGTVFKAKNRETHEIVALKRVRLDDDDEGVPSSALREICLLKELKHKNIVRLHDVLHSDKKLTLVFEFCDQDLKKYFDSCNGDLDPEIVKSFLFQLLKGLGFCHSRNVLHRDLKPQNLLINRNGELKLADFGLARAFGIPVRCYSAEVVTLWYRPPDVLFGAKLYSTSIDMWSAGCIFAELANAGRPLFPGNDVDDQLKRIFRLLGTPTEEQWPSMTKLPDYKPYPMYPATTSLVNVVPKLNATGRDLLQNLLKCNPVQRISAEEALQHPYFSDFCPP
Cyclin-dependent kinase 2 homolog (Plasmodium falciparum (isolate 3D7)), sequence (P61075 whole entry, canonical isoform): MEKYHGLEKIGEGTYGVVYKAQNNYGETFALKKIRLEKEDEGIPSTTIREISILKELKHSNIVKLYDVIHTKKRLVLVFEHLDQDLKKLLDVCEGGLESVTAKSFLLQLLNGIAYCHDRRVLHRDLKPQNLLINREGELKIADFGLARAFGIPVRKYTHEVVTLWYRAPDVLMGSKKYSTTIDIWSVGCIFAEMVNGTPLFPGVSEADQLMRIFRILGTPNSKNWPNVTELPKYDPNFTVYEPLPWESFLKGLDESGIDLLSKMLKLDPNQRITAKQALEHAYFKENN
5'-AMP-activated protein kinase catalytic subunit alpha-2 (Homo sapiens), sequence (P54646 whole entry, looked up): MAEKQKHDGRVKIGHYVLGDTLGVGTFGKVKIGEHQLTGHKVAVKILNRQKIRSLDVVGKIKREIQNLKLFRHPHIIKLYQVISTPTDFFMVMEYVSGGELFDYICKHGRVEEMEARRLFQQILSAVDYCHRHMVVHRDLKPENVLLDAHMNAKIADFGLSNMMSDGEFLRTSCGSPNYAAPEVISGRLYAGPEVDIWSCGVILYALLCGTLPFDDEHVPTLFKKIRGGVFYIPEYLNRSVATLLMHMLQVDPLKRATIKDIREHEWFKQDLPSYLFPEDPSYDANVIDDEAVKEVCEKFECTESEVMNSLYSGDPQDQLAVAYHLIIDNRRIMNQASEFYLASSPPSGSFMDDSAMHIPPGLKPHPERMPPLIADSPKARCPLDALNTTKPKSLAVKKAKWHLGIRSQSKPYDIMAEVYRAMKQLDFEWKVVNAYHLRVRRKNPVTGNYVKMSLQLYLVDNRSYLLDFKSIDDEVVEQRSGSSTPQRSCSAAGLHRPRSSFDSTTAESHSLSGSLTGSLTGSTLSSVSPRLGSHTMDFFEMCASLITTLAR
Phosphorylase b kinase gamma catalytic chain, skeletal muscle/heart isoform (Homo sapiens), sequence (Q16816 whole entry, looked up, canonical isoform): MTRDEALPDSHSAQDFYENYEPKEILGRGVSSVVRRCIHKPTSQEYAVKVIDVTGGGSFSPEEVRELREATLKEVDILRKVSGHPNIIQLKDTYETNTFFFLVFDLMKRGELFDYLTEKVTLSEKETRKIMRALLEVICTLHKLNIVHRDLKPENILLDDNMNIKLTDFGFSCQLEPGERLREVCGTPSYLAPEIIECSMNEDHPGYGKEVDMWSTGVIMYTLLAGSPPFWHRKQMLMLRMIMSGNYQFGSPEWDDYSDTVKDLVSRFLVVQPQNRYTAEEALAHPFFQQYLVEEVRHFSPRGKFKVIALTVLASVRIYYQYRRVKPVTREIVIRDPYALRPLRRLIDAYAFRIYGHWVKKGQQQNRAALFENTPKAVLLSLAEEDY

COc1cccc(CNC(=O)c2nc3scc(COCc4ccc(C(=O)O)cc4)c3c(=O)[nH]2)c1 [T-26c]
inactive: residual activity [1] 94.1% | residual activity [2] 85.4% | residual activity [3] 91.1% | inhibition [4] 17.2% | residual activity [5] 69.1% | residual activity [6] 84.4% | residual activity [7] 85.6% | residual activity [8] 91.1% | residual activity [9] 83.8% | residual activity [10] 100% | inhibition [11] -9.07% | residual activity [12] 100% | residual activity [13] 80.6% | residual activity [14] 87.3% | residual activity [15] 94.8% | residual activity [16] 100% | residual activity [17] 100% | inhibition [18] -3.34% | residual activity [19] 100% | residual activity [20] 83.1% | residual activity [21] 100% | residual activity [22] 100% | residual activity [23] 60.4% | residual activity [24] 100% | residual activity [25] 72.5% | residual activity [26] 95.5% | residual activity [27] 85.2% | residual activity [28] 100% | residual activity [29] 100% | residual activity [30] 95.7% | residual activity [31] 70.8% | residual activity [32] 100% | residual activity [33] 100% | residual activity [34] 97.2% | residual activity [35] 98.7% | residual activity [36] 59.8% | residual activity [37] 63.7% | inhibition [38] -5.04% | residual activity [39] 72.5% | residual activity [40] 100% | residual activity [41] 99.1% | inhibition [42] -3.64% | residual activity [43] 70.5% | residual activity [44] 77.3%
active: inhibition (Histamine H1 receptor) 50.2%
